# Measurements reported in publication PMC8894198, “Biosynthetic Microcin J25 Exerts Strong Antibacterial, Anti-Inflammatory Activities, Low Cytotoxicity Without Increasing Drug-Resistance to Bacteria Target” (Frontiers in Immunology, 2022).
# Entries after “also recorded” stand apart in the source; their conditions may differ. Where a SMILES comes first, the peptide text is derived from it. Bridges are numbered along the chain shown (N, C = ends).
# Tests used:
# [1] = remaining peptide by RP-HPLC, n = 6
# Description: (§1) Figure 3 Stability and activity of MccJ25 in different conditions and biological fluids. Various concentration of MccJ25 was incubated with different temperatures (A), pH values (B), (C) SIF, SGF, and serum. Proteases (D-F) for different indicated times. Afterwards, the amount of the remaining MccJ25 was determined by RP-HPLC. […] NE: negative control; Chy: chymotrypsin. […] Effects of temperature (G), RT: room temperature, pH values (H), proteases (I), SGF (J), SIF (K), and serum (L) on the inhibition of E coli K88 by MccJ25. The zone of inhibition is often used to clarify the antimicrobial activity of MccJ25. […] Chy refers to chymotrypsin. Data are presented as the mean of 6 biological replicates ± standard error of mean form.
# [2] = RP-HPLC
# Description: (§2) The simulated gastric fluid (SGF) and simulated intestinal fluid (SIF) were mainly based on the relevant contents of the Chinese Pharmacopoeia as described previously ([26]). SGF was configurated with 10 mg/mL pepsin, 0.03 M NaCl was used to blend the pH to 1.5, while SIF was configured with 10 mg/mL trypsin, 0.05 M KH2PO4 was used to blended pH as 7. SGF and SIF were then measured separately, and the antimicrobial activity of MccJ25 in serum was determined. E. coli K88 cells were grown in MHB (Difco Laboratories, Detroit, MI, USA). In short, 1 mL of the bacterial suspension and MccJ25 were transferred into 9 mL of medium. The control group was as follows: no MccJ25 was added to it. E. coli K88 cells with a live cell count maintained at approximately 10^5 cells per milliliter were inoculated on LB agar, which was then poured into plates equipped with Oxford cups, thus forming wells. Then, MccJ25 (1 × MIC) previously treated with SGF, SIF and serum for 2, 4, and 6 h was added to these wells. One of the agar substances covering the wells needs to be incubated overnight at 37°C, and finally, the size of its growth inhibition area, i.e., the diameter, needs to be determined.
# Figure 3 Stability and activity of MccJ25 in different conditions and biological fluids. […] Afterwards, the amount of the remaining MccJ25 was determined by RP-HPLC. […]
# in vitro [3] = assay: in vitro
# Description: as §2, §1
# in vitro [4] = assay: in vitro; remark: listed apart in the source
# Description: (§3) The resistance of MccJ25 to pepsin, trypsin and chymotrypsin was evaluated based on previous studies ([26]), with minor modifications. E. coli K88 cells were prepared (approximately 1 × 10^7 CFU/mL), and 1 mL of the bacterial suspension and MccJ25 were transferred into 9 mL of medium. For the control, MccJ25 was not added. LB agar inoculated with E. coli K88 cells (~10^5 viable cells/mL) was poured onto a plate containing an Oxford cup to form individual wells. Then, 2 and 4 h MccJ25 (1 × MIC) previously subjected to different treatments were added to the wells. The agar overlay was incubated overnight at 37°C, and the diameter of the growth inhibition zone was measured.
# as §1
# chymotrypsin = assay: in vitro; conditions: RP-HPLC
# Description: as §3, §1
# RAW264.7 cells [5] = assay: MTT cytotoxicity assay; assay type: cell-based, murine; conditions: different concentrations of MccJ25 up to 512 μg/mL, 24 h, 37°C; vs control; n = 6
# Description: (§4) To test whether MccJ25 could have an effect on the metabolic activity of the cells, the necessary MTT assay was performed (Roche Molecular Biochemistry, Mannheim, Germany) as previously described ([28], [29]). The whole operation process can be briefly summarized as follows: first, various concentration gradients of MccJ25 solution were added, the ambient temperature of the cell secondary incubation was maintained at 37°C, the CO2 concentration was maintained at 5%, and the incubation time needed to reach 24 h. The control group was the cells without any treatment. Afterwards, 20 μL of MTT solution (concentration 5 mg/mL, medium DPBS) was added to all wells and incubated for 3.5 h at a temperature of 37°C and a CO2 concentration of 5%. Components of the medium were removed by centrifugation, and the MTT metabolites were resuspended in 200 μL of dimethyl sulfoxide. The absorbance value at 560 nm was measured, and the background value was the absorbance at 670 nm, which needed to be subtracted from the background value to obtain the absorbance value.
# Caco-2 cells [6] = assay: MTT cytotoxicity assay; assay type: cell-based, human; conditions: different concentrations of MccJ25 up to 512 μg/mL, 24 h, 37°C; vs control; n = 6
# Description: as §4
# Caco-2 cells [7] = conditions: 2 to 512 μg/mL MccJ25, 24 h, 37°C; n = 6
# Description: (§5) Certain adjustments were made to Dulbecco’s modified Eagle’s medium (DMEM), i.e., 20% fetal bovine serum (FBS) was added, and human colon cancer cell line Caco-2 and murine cell line macrophage RAW264.7 cells were inoculated into the adjusted medium, with the inoculum density maintained at 2 × 10^4 cells/mL, placed in 96-well plates until the overall confluence ratio reached 80% to 90%, respectively.
# (§6) The secretion of the cell membrane enzyme lactate dehydrogenase (LDH) was measured on the basis of a colorimetric assay. Caco-2 and RAW264.7 cells (2 × 10^4 cells/well) as controls without or with concentrations of 2 to 512 μg/mL MccJ25 were incubated for 24 h at 37°C in 5% CO2. A simple step was to transfer 100 μL of cell culture medium from each well to a new 96-well plate and measure the activity of LDH based on the LDH cytotoxicity assay kit (Clontech, Mountain View, CA, USA) according to the manufacturer’s instructions. The catalyst and dye solutions were mixed well and added to the wells containing cell culture medium and then incubated for 30 min at room temperature. The absorbance at 490 and 670 nm was measured with a microplate reader (Model SynergyMx, BioTek, Winooski, VT, USA). Absorbance values were corrected by subtracting the […].
# RAW264.7 cells [8] = conditions: 2 to 512 μg/mL MccJ25, 24 h, 37°C; n = 6
# Description: as §5, §6
# [9] = test system: mouse erythrocytes (mRBCs); conditions: 512 μg/mL (highest concentration), 8% RBCs in PBS, 37°C, 1 h, A414
# Description: (§7) Fresh mouse/pig erythrocytes (mRBCs/pRBCs) were collected from well-grown animals, centrifuged at 4,200 rpm and washed well with phosphate-buffered saline (PBS) to ensure that their supernatants were free of impurities and remained clear. The liquid was added to the 96-well plate after 2-fold dilution of MccJ25 prepared with PBS, and the final concentration of RBCs was introduced at 8%. The plate was stirred less vigorously to homogenize the liquid and incubated at 37°C for 1 h. The supernatant was then centrifuged at 4,500 rpm for 10 min, and its absorbance value at 414 nm was measured. Three replicate groups were set up for all the above experiments, and the percentage hemolysis was calculated as follows: percentage hemolysis = [(A414 in peptide solution - A414 in PBS)/(A414 in […] - A414 in PBS)]. ×100, where 100% hemolysis refers to the absorbance of RBCs exposed to 1% Triton X-100 in the environment and 0% hemolysis refers to the absorbance of RBCs exposed to PBS. The positive control used in this experiment was melittin.
# pig erythrocytes (pRBCs) = conditions: 512 μg/mL (highest concentration), 8% RBCs in PBS, 37°C, 1 h, A414
# Description: as §7
# IPEC-J2 cells = conditions: previous study; ref [29]; cited from earlier work
# Excerpt: Microcins, AMPs, are a large class of antimicrobial agents that can be employed in the treatment of various infectious diseases. […] Cytotoxicity, including the hemolysis of erythrocytes, is one of the main factors limiting the practical application of AMPs. Therefore, it is crucial to have a clear understanding of the c ...
# E. coli K88 [10] = assay type: cell-based; conditions: sublethal levels, daily sequential passages
# Description: To quantify the production status of the bacteria, the bacterial density was measured after incubating for 24 h. Cultures with the second highest concentration allowed to grow (OD600 ≥ 2) were diluted 1:100 with MccJ25 MHB at different concentrations than those described above. Cultures that grew above the indicated MIC levels were plated on LB agar plates, and their MIC levels were determined by the broth macrodilution method.
# E. coli K88 [11] = assay: MIC variability (cross-resistance) after 5 days at sub-MIC; assay type: cell-based; conditions: after culture under ampicillin (0.25 × MIC) for 5 days
# Description: A 1:100 dilution of the bacteria was performed daily in the above MHB. Aliquots of the culture medium were used daily for 5 days thereafter to determine the MICs of ampicillin, tetracycline, aureomycin, and kanamycin. This study was performed based on our previous study ([29]).
structure (smiles),measurement,setting,value
"CC[C@H](C)[C@H](NC(=O)CNC(=O)[C@@H](NC(=O)[C@H](Cc1ccccc1)NC(=O)[C@H](Cc1ccc(O)cc1)NC(=O)[C@@H]1CCC(=O)NCC(=O)NCC(=O)N[C@@H](C)C(=O)NCC(=O)N[C@@H](Cc2cnc[nH]2)C(=O)N[C@@H](C(C)C)C(=O)N2CCC[C@H]2C(=O)N1)C(C)C)C(=O)NCC(=O)N[C@H](C(=O)N1CCC[C@H]1C(=O)N[C@H](C(=O)N[C@@H](CO)C(=O)N[C@@H](Cc1ccccc1)C(=O)N[C@@H](Cc1ccc(O)cc1)C(=O)NCC(=O)O)[C@@H](C)CC)[C@@H](C)O [MccJ25, microcin J25] (GGAGHVPEYFVGIGTPISFYG-OH; lactam N-8)",stability of intact MccJ25 at high temperature,"[1]; 121°C, 20 min",able to maintain its own steady state
same,stability of intact MccJ25 at different pH,"[1]; pH 2.0 to 9.0, 2 h",able to maintain its own steady state
same,intact MccJ25 after 6 h of incubation in SGF,"[2]; SGF pH 1.5, 10 mg/mL pepsin, 6 h",still present
same,concentration of intact MccJ25 in SGF,"[2]; SGF: 10 mg/mL pepsin, 0.03 M NaCl, pH 1.5, up to 6 h, n = 6",decreased slowly
same,intact MccJ25 after 6 h of incubation in serum,"in vitro [3]; 6 h, RP-HPLC",still present
same,intact MccJ25 after 6 h of incubation in SIF,"in vitro [3]; SIF pH 7, 10 mg/mL trypsin, 6 h, RP-HPLC",still present
same,half-life,"in vitro [3]; mouse, serum",4 h
same,half-life,"in vitro [3]; simulated intestinal fluid (SIF) with 10 mg/mL trypsin, pH 7",2 h
same,metabolised at 1 h,in vitro [4]; chymotrypsin (isolated protease),70%
same,remaining at 6 h,in vitro [4]; pepsin (isolated protease),> 70%
same,remaining at 6 h,in vitro [4]; trypsin (isolated protease),> 70%
same,level of intact MccJ25 exposed to chymotrypsin,chymotrypsin; 2 and 4 h,below the detection limit
same,intact MccJ25 after exposure to chymotrypsin,chymotrypsin; after 6 h,below the detection limit
same,cell viability (MTT),RAW264.7 cells [5],nontoxic; also recorded: no significant differences in cell survival
same,cell viability (MTT),Caco-2 cells [6],nontoxic; also recorded: no significant differences in cell survival
same,LDH activity (plasma membrane integrity),Caco-2 cells [7],did not stimulate LDH activity
same,LDH activity (plasma membrane integrity),RAW264.7 cells [8],did not stimulate LDH activity
same,hemolysis,[9],4.16%
same,hemolysis,pig erythrocytes (pRBCs),4.07%
same,cytotoxicity,IPEC-J2 cells,not cytotoxic
CC1(C)S[C@@H]2[C@H](NC(=O)[C@H](N)c3ccccc3)C(=O)N2[C@H]1C(=O)O [ampicillin],time of serial passage until resistance,E. coli K88 [10],≤ 4 days
same,elevation of the MIC of the antibiotic,E. coli K88 [11],2 fold
O=C(O)c1cn(C2CC2)c2cc(N3CCNCC3)c(F)cc2c1=O [ciprofloxacin],elevation of the MIC of the antibiotic,E. coli K88 [11],2 fold
NC[C@H]1O[C@H](O[C@H]2[C@H](O)[C@@H](O[C@H]3O[C@H](CO)[C@@H](O)[C@H](N)[C@H]3O)[C@H](N)C[C@@H]2N)[C@H](O)[C@@H](O)[C@@H]1O [kanamycin],elevation of the MIC of the antibiotic,E. coli K88 [11],2 fold
CN(C)[C@@H]1C(O)=C(C(N)=O)C(=O)[C@@]2(O)C(O)=C3C(=O)c4c(O)cccc4[C@@](C)(O)[C@H]3C[C@@H]12 [tetracycline],time of serial passage until resistance,E. coli K88 [10],≤ 3 days
same,elevation of the MIC of the antibiotic,E. coli K88 [11],2 fold
